Source: US20260015360A1 (MOMA Therapeutics, Inc., priority 2023, published 2026)

How the values were obtained:
[1] = target: T1, biotinylated Avi-POLΘ[2-894] (Homo sapiens, UniProt O75417); assay: ATPase assay (ADP-Glo): POLΘ-mediated ATP hydrolysis; conditions: read-out: Biochemical ATPase ADPGlo IC50
T1 construct: 1 nM biotinylated Avi-POLΘ[2-894]

DLD1 BRCA2 (−/−) cells = assay: DLD1 viability assay (CellTiter-Glo, 7 days), DLD1 BRCA2 (−/−); format: cell-based; conditions: Homo sapiens, DLD-1, 168 h, read-out: Viability IC50 (μM) DLD1 BRCA2 null
DLD1 WT cells = assay: DLD1 viability assay (CellTiter-Glo, 7 days), DLD1 WT; format: cell-based; conditions: Homo sapiens, DLD-1, 168 h

T1 sequence (O75417 2-894 limits assumed): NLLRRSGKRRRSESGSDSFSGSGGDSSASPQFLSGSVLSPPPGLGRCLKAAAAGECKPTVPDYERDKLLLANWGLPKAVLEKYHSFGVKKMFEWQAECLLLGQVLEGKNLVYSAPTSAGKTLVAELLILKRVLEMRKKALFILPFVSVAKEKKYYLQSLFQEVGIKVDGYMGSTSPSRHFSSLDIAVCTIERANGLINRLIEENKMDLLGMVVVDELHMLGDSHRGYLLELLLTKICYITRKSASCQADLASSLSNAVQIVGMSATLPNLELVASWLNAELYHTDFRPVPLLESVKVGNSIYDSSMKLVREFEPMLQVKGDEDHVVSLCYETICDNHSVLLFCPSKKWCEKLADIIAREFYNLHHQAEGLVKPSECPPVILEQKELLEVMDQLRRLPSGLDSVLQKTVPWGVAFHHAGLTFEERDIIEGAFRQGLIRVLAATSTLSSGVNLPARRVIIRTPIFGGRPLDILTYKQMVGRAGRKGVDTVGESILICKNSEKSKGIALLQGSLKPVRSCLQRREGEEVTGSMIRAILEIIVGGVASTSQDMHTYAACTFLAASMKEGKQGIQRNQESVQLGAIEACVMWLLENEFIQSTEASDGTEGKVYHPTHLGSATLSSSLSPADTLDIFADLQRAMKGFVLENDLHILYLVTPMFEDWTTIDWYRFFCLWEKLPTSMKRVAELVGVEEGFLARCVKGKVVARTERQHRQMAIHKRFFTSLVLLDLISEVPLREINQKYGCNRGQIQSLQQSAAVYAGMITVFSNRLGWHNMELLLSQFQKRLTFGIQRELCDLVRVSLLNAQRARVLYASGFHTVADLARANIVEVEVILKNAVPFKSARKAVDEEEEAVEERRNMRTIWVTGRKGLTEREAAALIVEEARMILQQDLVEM

| SMILES | IC50 [1] | IC50 (DLD1 BRCA2 (−/−) cells) | IC50 (DLD1 WT cells) |
| --- | --- | --- | --- |
| COc1cnc(Cl)cc1-c1cc(C)ncc1C(=O)Nc1nn2cc(C3CCC(CO)C3)nc2s1 (racemic) [Example 270] | 15 to 50 nM |  |  |
| COc1ccccc1-c1cc(C)ncc1C(=O)Nc1nc2ncc(C3CCCCO3)cc2s1 (single isomer, unassigned) [Example 106, (S or R)-4-(2-methoxyphenyl)-6-methyl-N-(6-(tetrahydro-2H-pyran-2-yl)thiazolo[4,5-b]pyridin-2-yl)nicotinamide] | 15 to 50 nM |  |  |
| Cc1cc(N2CCC[C@H](C#N)C2)c(C(=O)Nc2nc3ncc(-c4ccncc4)cc3s2)cn1 (single isomer, unassigned) [Example 143] | 150 to 900 nM |  |  |
| COc1cnc(Cl)cc1-c1cc(C)ncc1C(=O)Nc1nc2ncc(N3CC[C@@](C)(OC)[C@@H](F)C3)nc2s1 (single isomer, unassigned) [Example 363, 2′-chloro-N-(6-((3S or R,4R or S)-3-fluoro-4-methoxy-4-methylpiperidin-1-yl)thiazolo[4,5-b]pyrazin-2-yl)-5′-methoxy-6-methyl-[4,4′-bipyridine]-3-carboxamide] | 15 to 50 nM |  |  |
| COc1cnc(Cl)cc1-c1cc(C)ncc1C(=O)Nc1nc2ncc(N3CCO[C@H](C)[C@H]3C)nc2s1 (single isomer, unassigned) [Example 402, 2′-chloro-N-(6-((2R or S,3R or S)-2,3-dimethylmorpholino)thiazolo [4,5-b]pyrazin-2-yl)-5′-methoxy-6-methyl-[4,4′-bipyridine]-3-carboxamide] | 1 to 15 nM |  |  |
| COc1cnc(Cl)cc1-c1cc(C)ncc1C(=O)Nc1nc2ncc(N3CCO[C@@H](C)[C@@H]3C)nc2s1 (single isomer, unassigned) [Example 415, 2′-chloro-N-(6-((2S or R,3S or R)-2,3-dimethylmorpholino)thiazolo [4,5-b]pyrazin-2-yl)-5′-methoxy-6-methyl-[4,4′-bipyridine]-3-carboxamide] | 15 to 50 nM |  |  |
| COc1cnc(Cl)cc1-c1cc(C)ncc1C(=O)Nc1nc2ncc(C3CCOC3)nc2s1 (single isomer, unassigned) [Example 473, (R or S)-2′-chloro-5′-methoxy-6-methyl-N-(6-(tetrahydrofuran-3-yl)thiazolo[4,5-b]pyrazin-2-yl)-[4,4′-bipyridine]-3-carboxamide] | 15 to 50 nM |  |  |
| COc1cnc(Cl)cc1-c1cc(C)ncc1C(=O)Nc1nc2ncc(C3CCOC3)cc2s1 (single isomer, unassigned) [Example 516, (S or R)-2′-chloro-5′-methoxy-6-methyl-N-(6-(tetrahydrofuran-3-yl)thiazolo[4,5-b]pyridin-2-yl)-[4,4′-bipyridine]-3-carboxamide] | 1 to 15 nM |  |  |
| COc1cnc(Cl)cc1-c1cc(C)ncc1C(=O)Nc1nn2cc(C(=O)N[C@H]3C[C@](O)(C(F)(F)F)C3)nc2s1 [Example 32, 2-(2′-chloro-5′-methoxy-6-methyl-[4,4′-bipyridine]-3-carboxamido)-N-((1s,3s)-3-hydroxy-3-(trifluoromethyl)cyclobutyl)imidazo[2,1-b][1,3,4]thiadiazole-6-carboxamide] | > 900 nM |  |  |
| COc1cnc(Cl)cc1-c1cc(C)ncc1C(=O)Nc1nn2cc(C(=O)N3CC[C@H](O)C3)nc2s1 [Example 36, (S)-2′-chloro-N-(6-(3-hydroxypyrrolidine-1-carbonyl)imidazo[2,1-b][1,3,4]thiadiazol-2-y1)-5′-methoxy-6-methyl-[4,4′-bipyridine]-3-carboxamide] | 15 to 50 nM |  |  |
| COc1ccccc1-c1cc(C)ncc1C(=O)Nc1nc2ccc(Br)cc2o1 [Example 54, N-(6-Bromobenzo[d]oxazol-2-y1)-4-(2-methoxyphenyl)-6-methylnicotinamide] | 15 to 50 nM |  |  |
| COc1ccccc1-c1cc(C)ncc1C(=O)Nc1nc2ncc(C(F)(F)F)cc2s1 [Example 116] | 15 to 50 nM |  |  |
| COc1ccccc1-c1cc(C)ncc1C(=O)Nc1nc2nnc(Cl)cc2s1 [Example 117] | 15 to 50 nM |  |  |
| COc1cnc(Cl)cc1-c1cc(C)ncc1C(=O)Nc1nc2ncc(N3CCC(C(C)(C)O)CC3)nc2s1 [Example 480, 2′-chloro-N-(6-(4-(2-hydroxypropan-2-yl)piperidin-1-yl)thiazolo[4,5-b]pyrazin-2-yl)-5′-methoxy-6-methyl-[4,4′-bipyridine]-3-carboxamide] |  | 0.001 to 0.1 µM | > 10 µM |
| COc1cnc(Cl)cc1-c1cc(C)ncc1C(=O)Nc1nc2ncc(N3CCC[C@H](C)C3)nc2s1 [Example 481, (S)-2′-chloro-5′-methoxy-6-methyl-N-(6-(3-methylpiperidin-1-yl)thiazolo[4,5-b]pyrazin-2-yl)-[4,4′-bipyridine]-3-carboxamide] |  | 0.25 to 0.5 µM | 7.5 to 10 µM |
| COc1cnc(Cl)cc1-c1cc(C)ncc1C(=O)Nc1nc2ncc(N3CCC(C(F)F)CC3)nc2s1 [Example 486, 2′-chloro-N-(6-(4-(difluoromethyl)piperidin-1-yl)thiazolo[4,5-b]pyrazin-2-yl)-5′-methoxy-6-methyl-[4,4′-bipyridine]-3-carboxamide] |  | 0.001 to 0.1 µM | > 10 µM |
| COc1cnc(Cl)cc1-c1cc(C)ncc1C(=O)Nc1nc2ncc(N3CCO[C@H](C)C3)nc2s1 [Example 488, (R)-2′-chloro-5′-methoxy-6-methyl-N-(6-(2-methylmorpholino)thiazolo[4,5-b]pyrazin-2-yl)-[4,4′-bipyridine]-3-carboxamide] |  | 0.001 to 0.1 µM | > 10 µM |
| COc1cnc(Cl)cc1-c1cc(C)ncc1C(=O)Nc1nc2ncc(N3CCCCC3)nc2s1 [Example 491, 2′-chloro-5′-methoxy-6-methyl-N-(6-(piperidin-1-yl)thiazolo[4,5-b]pyrazin-2-yl)-[4,4′-bipyridine]-3-carboxamide] |  | 0.001 to 0.1 µM | > 10 µM |

Continued, values first:

| IC50 [1] | IC50 (DLD1 BRCA2 (−/−) cells) | IC50 (DLD1 WT cells) | SMILES |
| --- | --- | --- | --- |
| > 900 nM |  |  | Cc1cc(N2CCC3(CNC(=O)C3)C2)c(C(=O)Nc2nc3ncc(-c4ccncc4)cc3s2)cn1 (racemic) [Example 201] |
| 1 to 15 nM |  |  | COc1cnc(Cl)cc1-c1cc(C)ncc1C(=O)Nc1nc2ncc(N3CCO[C@@H](C)[C@H]3C)nc2s1 (single isomer, unassigned) [Example 408, 2′-chloro-N-(6-((2S or R,3R or S)-2,3-dimethylmorpholino)thiazolo [4,5-b]pyrazin-2-yl)-5′-methoxy-6-methyl-[4,4′-bipyridine]-3-carboxamide] |
| 1 to 15 nM |  |  | COc1ccc(C#N)cc1-c1cc(C)ncc1C(=O)Nc1nc2ncc(N3CCC(O)(C(F)F)CC3)nc2s1 (single isomer, unassigned) [Example 418, 4-(5-cyano-2-methoxyphenyl)-N-(6-(4-(difluoromethyl)-4-hydroxypiperidin-1-yl)thiazolo[4,5-b]pyrazin-2-yl)-6-methylnicotinamide] |
| 1 to 15 nM |  |  | COc1cnc(Cl)cc1-c1cc(C)ncc1C(=O)Nc1nc2ncc(C3CCOC3)nc2s1 (single isomer, unassigned) [Example 479, (S or R)-2′-chloro-5′-methoxy-6-methyl-N-(6-(tetrahydrofuran-3-yl)thiazolo[4,5-b]pyrazin-2-yl)-[4,4′-bipyridine]-3-carboxamide] |
| 150 to 900 nM |  |  | Cc1cc(C2=CCN(C(=O)OC(C)(C)C)CC2)c(C(=O)Nc2nc3ncc(-c4ccncc4)nc3s2)cn1 [Example 139] |
|  | 0.001 to 0.1 µM | 7.5 to 10 µM | COc1cnc(Cl)cc1-c1cc(C)ncc1C(=O)Nc1nc2ncc(N3CCC(C)CC3)nc2s1 [Example 474, 2′-chloro-5′-methoxy-6-methyl-N-(6-(4-methylpiperidin-1-yl)thiazolo[4,5-b]pyrazin-2-yl)-[4,4′-bipyridine]-3-carboxamide] |
|  | 0.001 to 0.1 µM | > 10 µM | COc1cnc(Cl)cc1-c1cc(C)ncc1C(=O)Nc1nc2ncc(N3CCC(C#N)CC3)nc2s1 [Example 475, 2′-chloro-N-(6-(4-cyanopiperidin-1-yl)thiazolo[4,5-b]pyrazin-2-yl)-5′-methoxy-6-methyl-[4,4′-bipyridine]-3-carboxamide] |
|  | 0.001 to 0.1 µM | > 10 µM | COc1cnc(Cl)cc1-c1cc(C)ncc1C(=O)Nc1nc2ncc(N3CCC4(CCO4)CC3)nc2s1 [Example 482, N-(6-(1-oxa-7-azaspiro[3.5]nonan-7-yl)thiazolo[4,5-b]pyrazin-2-yl)-2′-chloro-5′-methoxy-6-methyl-[4,4′-bipyridine]-3-carboxamide] |
|  | 0.1 to 0.25 µM | > 10 µM | COc1cnc(Cl)cc1-c1cc(C)ncc1C(=O)Nc1nc2ncc(N3CCOCC3)nc2s1 [Example 483, 2′-chloro-5′-methoxy-6-methyl-N-(6-morpholinothiazolo[4,5-b]pyrazin-2-yl)-[4,4′-bipyridine]-3-carboxamide] |
|  | 0.1 to 0.25 µM | > 10 µM | COc1cnc(Cl)cc1-c1cc(C)ncc1C(=O)Nc1nc2ncc(N3CCC[C@@H](C)C3)nc2s1 [Example 485, (R)-2′-chloro-5′-methoxy-6-methyl-N-(6-(3-methylpiperidin-1-yl)thiazolo[4,5-b]pyrazin-2-yl)-[4,4′-bipyridine]-3-carboxamide] |
|  | 0.001 to 0.1 µM | > 10 µM | COc1cnc(Cl)cc1-c1cc(C)ncc1C(=O)Nc1nc2ncc(N3CCC3)nc2s1 [Example 487, N-(6-(azetidin-1-yl)thiazolo[4,5-b]pyrazin-2-yl)-2′-chloro-5′-methoxy-6-methyl-[4,4′-bipyridine]-3-carboxamide] |
|  | 0.001 to 0.1 µM | > 10 µM | COc1cnc(Cl)cc1-c1cc(C)ncc1C(=O)Nc1nc2ncc(N3CCC(OC(F)(F)F)CC3)nc2s1 [Example 489, 2′-chloro-5′-methoxy-6-methyl-N-(6-(4-(trifluoromethoxy)piperidin-1-yl)thiazolo[4,5-b]pyrazin-2-yl)-[4,4′-bipyridine]-3-carboxamide] |
|  | 0.001 to 0.1 µM | > 10 µM | COc1cnc(Cl)cc1-c1cc(C)ncc1C(=O)Nc1nc2ncc(N3CCO[C@@H](C)C3)nc2s1 [Example 490, (S)-2′-chloro-5′-methoxy-6-methyl-N-(6-(2-methylmorpholino)thiazolo[4,5-b]pyrazin-2-yl)-[4,4′-bipyridine]-3-carboxamide] |
